According to patent publication US12133541B2, “Feed composition comprising hexahydro-β-acid component compounds and application thereof” (WISORIG TECHNOLOGIES PTE. LIMITED, priority 2019, dated 2024):
Entries after “also recorded” stand apart in the source; their conditions may differ. Like-named read-outs stand apart in the source and are kept apart here.

What was measured:
[1] = 10 day, 1 wt %
Method: (§1) 50 mg of standard substance was accurately weighed out and dissolved in an appropriate amount of methanol by ultrasonication. The solution was then transferred to a 50 mL volumetric flask and diluted to volume with methanol to give a stock solution. Working solutions with concentration as 25 ppm, 125 ppm, 250 ppm, 500 ppm, and 1000 ppm were prepared respectively by the dilution of appropriate amount of the stock solution.
(§2) • Column: Symmetry C18 column (Waters; 250 mm*4.6 mm, 5 μm) • Mobile phase: 0.02% phosphoric acid:methanol=5:95 (v:v) • Wavelength: 223 nm • Column temperature: 25° C. • Injection volume: 10 μL • Flow rate: 1 mL/min
(§3) Thermal stability testing: The test samples were spread in petri dishes to form thin layers of ≤5 mm and placed in a drug stability testing chambers at 60° C. Samples were taken with 3 replications in parallel for each of test samples on day 5 and day 10 for HPLC analysis.

[2] = Breeding experiment: production performance of hogs; type: in vivo, Duroc×Landrace×Yorkshire cross-bred bacon-type piglets; conditions: for ADFI (g/d per piglet) / ADG (g/d per piglet) / FCR: basal ration with 25 ppm of active ingredient; for ADFI (g/d per piglet) / ADG (g/d per piglet) / FCR / animal production performance compared with the hexahydro-β-acids (in words) / change rate of feed intake compared with the control group / change rate of weight gain compared with the control group / decrease rate of feed conversion ratio compared with the control group: 14 days; for ADFI (g/d per piglet) / ADG (g/d per piglet): 67-day-old piglets; for FCR: feed intake/weight gain; for animal production performance compared with the hexahydro-β-acids (in words) / change rate of feed intake compared with the control group / change rate of weight gain compared with the control group / decrease rate of feed conversion ratio compared with the control group / average daily weight gain vs control (in words): piglets; for animal production performance compared with the hexahydro-β-acids (in words) / change rate of feed intake compared with the control group / change rate of weight gain compared with the control group / decrease rate of feed conversion ratio compared with the control group: 25 ppm; for average daily weight gain vs control (in words): difference above 5% deemed obvious
Source text: 240 67-day-old Duroc×Landrace×Yorkshire cross-bred bacon-type piglets with similar body weight, were randomly divided into 8 groups, with 3 replications per group, 10 piglets per replication and equal amount of males and females. The pig pen and tools were sterilized before the experiment. During the experiment, the piglets were kept in separate regions in the same pig pen under the same feeding and management conditions. The piglets were given ad libitum access to food and water, and feeds were provided twice every day. The groups were control group (group 1) and test groups 2 to 8, wherein piglets of the control group were given basal ration only, those of the test groups 2 to 8 were respectively given basal ration in combination with different additives with 25 ppm of active ingredient thereof, wherein the active ingredient was hexahydro-β-acids, or the hexahydro-β-acid compounds, or the coated substances of the hexahydro-β-acid compounds, as shown in Table 3.
During the entire process, each test group was not given other antioxidants or growth promoters. The experiment lasted for 14 days. On the 14th day, after withdrawing feed (without withdrawing water) for 12 hours, taking each replicate as one unit, the weight of each replication piglets was measured and each of average daily feed intake (ADFI, g/d per piglet), average daily weigh gain (ADG, g/d per piglet), and feed conversion ratio (FCR) was calculated. Average daily feed intake=(Total weight of provided feed−Weight of remaining feed)/(Number of days×Amount of piglets in each replicate) Average daily weight gain=(final average body weight−initial average body weight)/number of test days Feed conversion ratio=average daily feed intake/average daily weight gain

[3] = Stability testing at ambient temperature of feeds (HPLC); type: physicochemical; conditions: for Concentration (%) Day 5 / Concentration (%) Day 10: room temperature, day 0 = 100%
Source text: Stability testing at ambient temperature: The samples were placed in a room-temperature environment. Samples were taken on day 5 and day 10 for HPLC analysis, and three replications were taken in parallel for each test sample.

[4] = Breeding experiment: production performance of broilers; type: in vivo, yellow broilers; conditions: 30 days; for ADFI (g/d per broiler) / ADG (g/d per broiler) / FCR: basal ration with 25 ppm of active ingredient; for ADFI (g/d per broiler) / ADG (g/d per broiler): 1-day-old yellow broilers; for FCR: feed intake/weight gain
Method: The experiment was conducted with single-factor randomized design. 720 1-day-old yellow broilers with a similar average body weight of 50 g, were randomly divided into 8 groups, with 6 replicates per group, equal amount of males and females and 15 yellow broilers per replicate. The chicken house and tools were sterilized before the experiment. During the experiment, the broilers were kept in separate regions in the same chicken house under the same feeding and management conditions. Basal ration mainly consisted of corn and soybean meal. During the entire process, each group was not given other antioxidants or growth promoters. The groups were control group (group 1) and test groups 2 to 8, wherein the control group was given basal ration only, while the test groups 2 to 8 were respectively given basal ration in combination with the different additives with 25 ppm of the active ingredient thereof, wherein the active ingredient was hexahydro-β-acids, or the hexahydro-β-acid compounds, or the coated substances of the hexahydro-β-acid compounds as shown in Table 4.
The experiment lasted for 30 days. The broilers were given ad libitum access to food and water, and feeds were provided twice every day. At the day when the broilers were 31-day old (after withdrawing feed for 12 hours, without withdrawing water), taking each replicate as one unit, body weight of the broilers was measured, and each of average daily feed intake (ADFI, g/d per broiler), average daily weigh gain (ADG, g/d per broiler), and feed conversion ratio (FCR) was calculated. Feed conversion ratio (FCR)=average daily feed intake/average daily weight gain

[5] = Thermal stability testing at 60° C. (HPLC); conditions: for Concentration (%) Day 5 / Concentration (%) Day 10: day 0 = 100%; for degradation ratio: 10-day testing period
Method: as §1, §2, §3

[6] = component within feed comprising 25 ppm of hexahydro-β-acids
[7] = 1% premix of hexahydro-β-acid compound
[8] = component within 1% premix of hexahydro-β-acids
[9] = component within hexahydro-β-acids
[10] = hexahydro-β-acid compound (free or coated substance)
[11] = feed comprising 25 ppm of hexahydro-β-acid compound

| Compound | ADFI (g/d per piglet) [2] [g/d per piglet] | ADG (g/d per piglet) [2] [g/d per piglet] | FCR [2] | change rate of feed intake compared with the control group [2] [%] | change rate of weight gain compared with the control group [2] [%] | decrease rate of feed conversion ratio compared with the control group [2] [%] | stability in feeds (in words) ([3]; ambient temperature) | Concentration (%) Day 5 [3, 6] [%] | Concentration (%) Day 10 [3, 6] [%] | ADFI (g/d per broiler) [4] [g/d per broiler] | ADG (g/d per broiler) [4] [g/d per broiler] | FCR [4] | change rate of feed intake compared with the control group ([4]; broilers, 25 ppm) [%] | change rate of weight gain compared with the control group ([4]; broilers, 25 ppm) [%] | decrease rate of feed conversion ratio compared with the control group ([4]; broilers, 25 ppm) [%] | Concentration (%) Day 5 [5, 7] [%] | Concentration (%) Day 10 [5, 7] [%] | Concentration (%) Day 5 [5, 8] [%] | Concentration (%) Day 10 [5, 8] [%] | Concentration (%) Day 5 [5, 9] [%] | further results |
| --- | --- | --- | --- | --- | --- | --- | --- | --- | --- | --- | --- | --- | --- | --- | --- | --- | --- | --- | --- | --- | --- |
| CC(C)CCC1=C(O)C(C(=O)C(C)C)=C(O)C(CCC(C)C)(CCC(C)C)C1=O [Hexahydro-colupulone, hexahydro-colupulone] | 894 | 403 | 2.218 | 2.40 | 12.57 | 8.99 | excellent short-term stability; also recorded: favourable stability | 53.88 | 37.69 | 49.68 | 25.19 | 1.97 | 0.26 | 8.86 | 7.94 | 99.39 | 97.39 | 97.02 | 97.56 | 96.48 | degradation ratio [1]: 2.6%; animal production performance compared with the hexahydro-β-acids (in words) [2]: improve the animal production performance effectively; average daily weight gain vs control (in words) [2]: obvious increase; Concentration (%) Day 10 [5, 9]: 90.43%; decrease in the concentration ([5]; day 10, component within 1% premix of hexahydro-β-acids): about 2.4%; decrease in the concentration ([5]; day 10, component within hexahydro-β-acids): about 10%; Concentration (%) Day 5 [5, 10]: 99.76%; Concentration (%) Day 10 [5, 10]: 99.10% |
| hexahydro-adlupulone | 860 | 368 | 2.340 | 1.49 | 2.79 | 3.98 | excellent short-term stability; also recorded: favourable stability | 60.55 | 0 | 50.06 | 24.59 | 2.04 | 1.03 | 6.27 | 4.67 | 97.24 | 95.68 | 88.97 | 88.63 | 91.48 | animal production performance compared with the hexahydro-β-acids (in words) [2]: improve the animal production performance effectively; average daily weight gain vs control (in words) [2]: obvious increase; decrease in feed conversion ratio / feed efficiency (in words) ([4]; broilers, 25 ppm): more effective than hexahydro-β-acids; degradation ratio ([5]; 1% premix of the compound): 4.3%; Concentration (%) Day 10 [5, 9]: 82.87%; Concentration (%) Day 5 [5, 10]: 98.01%; Concentration (%) Day 10 [5, 10]: 96.63% |
| hexahydro-lupulone [reference compound] | 864 | 358 | 2.413 | −1.03 | 0 | 0.98 | very poor stability in feeds | 63.08 | 0 | 49.13 | 23.58 | 2.08 | −0.85 | 1.90 | 2.80 | 92.37 | 91.21 | 89.92 | 87.62 | 91.97 | decrease of active compound in feed ([3]; ambient temperature, 10-day period, feed with 25 ppm): 95%; Concentration (%) Day 5 [3, 11]: 17.78%; Concentration (%) Day 10 [3, 11]: 4.96%; degradation ratio ([5]; 1% premix of the compound): 8.8%; degradation ratio ([5]; compound or coated substance): 7.2%; Concentration (%) Day 10 [5, 9]: 79.62%; Concentration (%) Day 5 [5, 10]: 99.10%; Concentration (%) Day 10 [5, 10]: 92.85% |
